Results reported in PubChem BioAssay (NCI).
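Exposure lasted 48 hours, with cells grown in 96-well plates and compounds tested at five concentrations. Definition used: TGI = concentration required for complete inhibition of growth.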

Key:
Assay in all cases: NCI tumour cell line growth inhibition, 48 h
786-0 renal = test system: 786-0 renal
A498 renal = test system: A498 renal
A549 NSCLC = test system: A549 NSCLC
ACHN renal = test system: ACHN renal
CAKI-1 renal = test system: CAKI-1 renal
CCRF-CEM leukemia = test system: CCRF-CEM leukemia
COLO 205 colon = test system: COLO 205 colon
DLD-1 colon = test system: DLD-1 colon
DMS 114 small cell lung = test system: DMS 114 small cell lung
DMS 273 small cell lung = test system: DMS 273 small cell lung
EKVX NSCLC = test system: EKVX NSCLC
HCC-2998 colon = test system: HCC-2998 colon
HCT-116 colon = test system: HCT-116 colon
HL-60(TB) leukemia = test system: HL-60(TB) leukemia
HOP-18 NSCLC = test system: HOP-18 NSCLC
HOP-62 NSCLC = test system: HOP-62 NSCLC
HOP-92 NSCLC = test system: HOP-92 NSCLC
IGROV1 ovarian = test system: IGROV1 ovarian
K-562 leukemia = test system: K-562 leukemia
KM12 colon = test system: KM12 colon
KM20L2 colon = test system: KM20L2 colon
LOX IMVI melanoma = test system: LOX IMVI melanoma
LXFL 529 NSCLC = test system: LXFL 529 NSCLC
M14 melanoma = test system: M14 melanoma
M19-MEL melanoma = test system: M19-MEL melanoma
MALME-3M melanoma = test system: MALME-3M melanoma
MOLT-4 leukemia = test system: MOLT-4 leukemia
NCI-H226 lung = test system: NCI-H226 lung
NCI-H23 lung = test system: NCI-H23 lung
NCI-H460 lung = test system: NCI-H460 lung
NCI-H522 lung = test system: NCI-H522 lung
OVCAR-3 ovarian = test system: OVCAR-3 ovarian
OVCAR-4 ovarian = test system: OVCAR-4 ovarian
OVCAR-5 ovarian = test system: OVCAR-5 ovarian
OVCAR-8 ovarian = test system: OVCAR-8 ovarian
RPMI-8226 leukemia = test system: RPMI-8226 leukemia
RXF 393 renal = test system: RXF 393 renal
SF-268 CNS = test system: SF-268 CNS
SF-295 CNS = test system: SF-295 CNS
SF-539 CNS = test system: SF-539 CNS
SK-MEL-2 melanoma = test system: SK-MEL-2 melanoma
SK-MEL-28 melanoma = test system: SK-MEL-28 melanoma
SK-MEL-5 melanoma = test system: SK-MEL-5 melanoma
SK-OV-3 ovarian = test system: SK-OV-3 ovarian
SN12C renal = test system: SN12C renal
SNB-19 CNS = test system: SNB-19 CNS
SNB-75 CNS = test system: SNB-75 CNS
SNB-78 CNS = test system: SNB-78 CNS
SW-620 colon = test system: SW-620 colon
TK-10 renal = test system: TK-10 renal
U251 CNS = test system: U251 CNS
UACC-257 melanoma = test system: UACC-257 melanoma
UACC-62 melanoma = test system: UACC-62 melanoma
UO-31 renal = test system: UO-31 renal
XF 498 CNS = test system: XF 498 CNS
HCT-15 colon = test system: HCT-15 colon
HT29 colon = test system: HT29 colon
SR leukemia = test system: SR leukemia

For Cc1nc(Nc2ccccc2)sc1C(=O)NNC(N)=O, the TGI (786-0 renal) was > 100 µM, the TGI (A498 renal) was > 100 µM and the TGI (A549 NSCLC) was > 100 µM. The TGI (ACHN renal) was > 100 µM, the TGI (CAKI-1 renal) was > 100 µM and the TGI (CCRF-CEM leukemia) was > 100 µM. The TGI (COLO 205 colon) was > 100 µM, the TGI (DLD-1 colon) was > 100 µM and the TGI (DMS 114 small cell lung) was > 100 µM. The TGI (DMS 273 small cell lung) was > 100 µM, the TGI (EKVX NSCLC) was > 100 µM and the TGI (HCC-2998 colon) was > 100 µM. For the same compound, the TGI (HCT-116 colon) was > 100 µM, the TGI (HL-60(TB) leukemia) was > 100 µM and the TGI (HOP-18 NSCLC) was > 100 µM. For the same compound, the TGI (HOP-62 NSCLC) was > 100 µM, the TGI (HOP-92 NSCLC) was > 100 µM and the TGI (IGROV1 ovarian) was > 100 µM. The TGI (K-562 leukemia) was > 100 µM, the TGI (KM12 colon) was > 100 µM and the TGI (KM20L2 colon) was > 100 µM. For the same compound, the TGI (LOX IMVI melanoma) was > 100 µM, the TGI (LXFL 529 NSCLC) was > 100 µM and the TGI (M14 melanoma) was > 100 µM. For the same compound, the TGI (M19-MEL melanoma) was > 100 µM, the TGI (MALME-3M melanoma) was > 100 µM and the TGI (MOLT-4 leukemia) was > 100 µM. For the same compound, the TGI (NCI-H226 lung) was > 100 µM, the TGI (NCI-H23 lung) was > 100 µM and the TGI (NCI-H460 lung) was > 100 µM. The TGI (NCI-H522 lung) was > 100 µM, the TGI (OVCAR-3 ovarian) was > 100 µM and the TGI (OVCAR-4 ovarian) was > 100 µM. The TGI (OVCAR-5 ovarian) was > 100 µM, the TGI (OVCAR-8 ovarian) was > 100 µM and the TGI (RPMI-8226 leukemia) was > 100 µM. For the same compound, the TGI (RXF 393 renal) was > 100 µM, the TGI (SF-268 CNS) was > 100 µM and the TGI (SF-295 CNS) was > 100 µM. The TGI (SF-539 CNS) was > 100 µM, the TGI (SK-MEL-2 melanoma) was > 100 µM and the TGI (SK-MEL-28 melanoma) was > 100 µM. The TGI (SK-MEL-5 melanoma) was > 100 µM, the TGI (SK-OV-3 ovarian) was > 100 µM and the TGI (SN12C renal) was > 100 µM. For the same compound, the TGI (SNB-19 CNS) was > 100 µM, the TGI (SNB-75 CNS) was 80.7 µM and the TGI (SNB-78 CNS) was > 100 µM. The TGI (SW-620 colon) was > 100 µM, the TGI (TK-10 renal) was > 100 µM and the TGI (U251 CNS) was > 100 µM. The TGI (UACC-257 melanoma) was 71.6 µM, the TGI (UACC-62 melanoma) was > 100 µM and the TGI (UO-31 renal) was > 100 µM. The TGI (XF 498 CNS) was > 100 µM.
In the case of C/C=C/CP(=O)(c1ccccc1)c1ccccc1, the TGI (786-0 renal) is reported as > 100 µM, the TGI (A498 renal) is reported as > 100 µM and the TGI (A549 NSCLC) is reported as > 100 µM. For the same compound, the TGI (ACHN renal) was > 100 µM, the TGI (CCRF-CEM leukemia) was > 100 µM and the TGI (COLO 205 colon) was > 100 µM. For the same compound, the TGI (DLD-1 colon) was > 100 µM, the TGI (DMS 114 small cell lung) was > 100 µM and the TGI (DMS 273 small cell lung) was > 100 µM. The TGI (EKVX NSCLC) was > 100 µM, the TGI (HCC-2998 colon) was > 100 µM and the TGI (HCT-116 colon) was > 100 µM. For the same compound, the TGI (HCT-15 colon) was > 100 µM, the TGI (HL-60(TB) leukemia) was > 100 µM and the TGI (HOP-18 NSCLC) was > 100 µM. The TGI (HOP-62 NSCLC) was > 100 µM, the TGI (HT29 colon) was > 100 µM and the TGI (IGROV1 ovarian) was > 100 µM. For the same compound, the TGI (K-562 leukemia) was > 100 µM, the TGI (KM12 colon) was > 100 µM and the TGI (KM20L2 colon) was > 100 µM. For the same compound, the TGI (LOX IMVI melanoma) was > 100 µM, the TGI (LXFL 529 NSCLC) was > 100 µM and the TGI (M14 melanoma) was > 100 µM. For the same compound, the TGI (M19-MEL melanoma) was > 100 µM, the TGI (MALME-3M melanoma) was > 100 µM and the TGI (MOLT-4 leukemia) was > 100 µM. The TGI (NCI-H226 lung) was > 100 µM, the TGI (NCI-H23 lung) was > 100 µM and the TGI (NCI-H460 lung) was > 100 µM. For the same compound, the TGI (NCI-H522 lung) was > 100 µM, the TGI (OVCAR-3 ovarian) was > 100 µM and the TGI (OVCAR-4 ovarian) was > 100 µM. For the same compound, the TGI (OVCAR-5 ovarian) was > 100 µM, the TGI (OVCAR-8 ovarian) was > 100 µM and the TGI (RPMI-8226 leukemia) was > 100 µM. The TGI (RXF 393 renal) was > 100 µM, the TGI (SF-295 CNS) was > 100 µM and the TGI (SF-539 CNS) was > 100 µM. The TGI (SK-MEL-2 melanoma) was > 100 µM, the TGI (SK-MEL-28 melanoma) was > 100 µM and the TGI (SK-MEL-5 melanoma) was > 100 µM. The TGI (SK-OV-3 ovarian) was > 100 µM, the TGI (SN12C renal) was > 100 µM and the TGI (SNB-19 CNS) was > 100 µM. The TGI (SNB-75 CNS) was > 100 µM, the TGI (SNB-78 CNS) was > 100 µM and the TGI (SR leukemia) was > 100 µM. The TGI (SW-620 colon) was > 100 µM, the TGI (TK-10 renal) was > 100 µM and the TGI (U251 CNS) was > 100 µM. The TGI (UACC-257 melanoma) was > 100 µM, the TGI (UACC-62 melanoma) was > 100 µM and the TGI (UO-31 renal) was > 100 µM. For the same compound, the TGI (XF 498 CNS) was > 100 µM.
